# Reference: patent publication US6387910B1, “Drug of improving optic nerve head circulation disorder” (Akzo Nobel N.V., priority 1998, dated 2002)
# Assays:
# [1] = test system: blood flow in the optic nerve head; assay: Blood flow in the optic nerve head by laser speckle technique (rate of change of NB value); type: in vivo; settings: rabbit, i.v.
# Protocol: The optic nerve head circulation improving activity was measured by using as an index the rate of change of NB value as mentioned hereinafter.
# 1) Measurement of Blood Flow in the Optic Nerve Head by Laser Speckle Technique
# (§1) Male New Zealand White rabbits (weighing 2.3-3.1 kg) were housed in an OSHIDA-type solid box and the left auricula was locally anesthetized with Xylocaine Spray (trademark, manufactured by Fujisawa Pharmaceutical) and Xylocaine Jelly (trademark, manufactured by Fujisawa Pharmaceutical), and a catheter (Polyethylene Tube SP28, manufactured by Natsume) were inserted into the post auricular artery for measuring the blood pressure and the heart rate, and the blood pressure and the heart rate were continuously recorded with a recorder (WT-645G, manufactured by Nihon-Koden). Under the local anesthesia, a catheter for administering the test drug (Polyethylene Tube SP31, manufactured by Natsume) was likewise inserted into the right post auricular vein of the animal.
# The blood flow of the optic nerve head was measured by selecting a portion having no surface blood vessel at the right optic nerve head [0.42×0.42 mm (field angle 30°) with an eyegrounds circulation analyzer (Laser speckle circulation analyzer-II: LSCA-II), measuring the mean value of the quantitative index of blurring in whole field (100×100) [NB value (normalized blur value)], and calculating the rate of change (%) of the NB value by the following equation: [formula]
# By the way, the test drug was prepared by adding a 20% dimethylacetamide solution containing 2% tartaric acid to a drug to be tested so as to adjust the ad ministration volume thereof to 0.1 ml/kg and dissolving the mixture by adding thereto a hot water.
# The change of the value between the data after administration of drug or vehicle and the data before the administration of drug or vehicle was determined, and for each item, the mean values and standard deviation in six animals in each test were determined, and the results are shown in the accompanying FIG. 1 to FIG. 8. […]
# [2] = test system: intraocular pressure; assay: Measurement of intraocular pressure in rabbits (pneumatonometer); type: in vivo; settings: rabbit; 0.003, 0.01 and 0.03 mg/kg, i.v.
# Protocol: 2) Measurement of Intraocular Pressure The intraocular pressure was measured on the left eye at each time when the above NB values were measured after the administration of drug or vehicle (excepting 5 minutes after administration, the intraocular pressure was not measured) after dropping a 0.4% solution of Benoxil (trademark, manufactured by Santen Pharmaceutical) by using a calibrated pneumatonometer (Alcon Application Pneumatonograph, manufactured by Nippon Alcon). The change of the value between the data after administration of drug or vehicle and the data before the administration of drug or vehicle was determined, and for each item, the mean values and standard deviation in six animals in each test were determined, and the results are shown in the accompanying FIG. 1 to FIG. 8. The significant test of the test drug was done by t-test at each time of measurement compared to the data in the control group administered with vehicle. The significant standards are indicated separately in the group of less than 5% and the group of less than 1%.
# [3] = test system: blood pressure and heart rate; assay: Mean blood pressure and heart rate in rabbits (post auricular artery catheter); type: in vivo; settings: rabbit
# From the text: as §1
# The change of the value between the data after administration of drug or vehicle and the data before the administration of drug or vehicle was determined, and for each item, the mean values and standard deviation in six animals in each test were determined, and the results are shown in the accompanying FIG. 1 to FIG. 8. The significant test of the test drug was done by t-test at each time of measurement compared to the data in the control group administered with vehicle. The significant standards are indicated separately in the group of less than 5% and the group of less than 1%.
# [4] = test system: blood flow in the optic nerve head; settings: literature: Nichi-Gan Kaishi Vol. 100, No. 12, p. 923, 1996; cited from earlier work
# [5] = Measurement of plasma concentration of drug in rabbit (gas chromatography); type: in vivo; settings: Lomerizine hydrochloride 0.03 mg/kg, i.v.
# Protocol: Under the same conditions as in the above Example 1, the plasma concentration of Lomerizine in the groups administered with Lomerizine hydrochloride (0.03 mg/kg, i.v.) 5, 15, 30 and 60 minutes after the administration of the drug as follows.
# Male New Zealand White rabbits (weighing 2.5-3.5 kg, 3 animals per group) were placed in an OSHIDA-type solid box. A solution of Lomerizine hydrochloride (in an amount so as to be 0.03 mg/kg) in a 20% dimethylacetamide containing 2% tartaric acid was prepared and was administered to the right post auricular vein of the animals. Thereafter, blood sampling was done from left post auricular vein 5, 15, 30 and 60 minutes after the administration of test drug. The collected blood sample was centrifuged (4° C., 3000 rpm×10 minutes) to obtain a plasma sample, and then the amount of Lomerizine in the plasma was measured by gas chromatography.
# The gas chromatography was carried out under the following conditions:
# GC-14B type gas chromatograph (manufactured by Shimadzu Corporation)
# FTD Detector (Shimadzu FTD-8, manufactured by Shimadzu Corporation)
# Conditions for Measurement:
# Column: Shimadzu CBP1-M25-025 (25m×0.2mm, thickness of membrane: 0.25 μm)
# Injection port temperature: 310° C.
# Column temperature: 285° C.
# Detector temperature: 310° C.
# Carrier gas: Helium (2.30 kg/m^2)
# Make up gas: Helium (flow rate: 40 ml/minute)
# H2 flow rate: 3.8 ml/minute
# Air flow rate: 160 ml/minute
# [6] = test system: side effects (objective and subjective symptoms); assay: Side effect-manifestation in aged and younger persons; type: in vivo; settings: human
# [7] = 0.03 mg/kg, i.v., 15 minutes after the administration
"Concentration of Lomerizine in Plasma, Mean ± Standard deviation ([5]; 5 minutes after administration) [ng/mL]","Concentration of Lomerizine in Plasma, Mean ± Standard deviation ([5]; 15 minutes after administration) [ng/mL]","Concentration of Lomerizine in Plasma, Mean ± Standard deviation ([5]; 30 minutes after administration) [ng/mL]",Compound,"increasing activity of blood flow in the optic nerve head (rate of change of NB value) vs vehicle ([1]; 0.03 mg/kg, 30 minutes after the administration)","increasing activity of blood flow in the optic nerve head (rate of change of NB value) vs vehicle ([1]; 0.003, 0.01 and 0.03 mg/kg, significant 5 minutes after the administration)","increasing activity of blood flow in the optic nerve head (rate of change of NB value) vs vehicle ([1]; 0.003 and 0.03 mg/kg, 15 minutes after the administration)",action on the intraocular pressure [2],"heart rate vs vehicle [3, 7]","hypotensive activity (mean blood pressure) vs vehicle [3, 7]","hypotensive activity (mean blood pressure) vs vehicle ([3]; 0.01 and 0.03 mg/kg, i.v., 5 minutes after the administration)","heart rate vs vehicle ([3]; 0.01 and 0.03 mg/kg, i.v., 30 minutes after the administration)","heart rate vs vehicle ([3]; all groups (0.003, 0.01 and 0.03 mg/kg, i.v.), 5 minutes after the administration)",action on the optic nerve head (blood flow) [4],side effect-manifestation in aged persons (65-85 years old) compared with younger persons (15-64 years old) [6]
,,,COC(=O)C1=C(C#N)NC(C)=C(C(=O)OC(C)C)C1c1cccc([N+](=O)[O-])c1 (centres unmarked) [Nilvadipine],significant increasing activity,higher increasing activity,significant increasing activity,no clear action,significant increase,significant hypotensive activity,significant hypotensive activity,significant increase,significant increase,an activity of increasing blood flow,
19.8 ± 6.5,8.1 ± 2.4,4.9 ± 2.4,Lomerizine,,,,,,,,,,,not so different
